# US12448373B2, “Azetidinyl-acetamides as CXCR7 inhibitors” (CHEMOCENTRYX, INC., priority 2021, dated 2025)
# Target: T1, CXCR7 (Homo sapiens, UniProt P25106)
# T1 construct: expressed in transfected cells; host or cells: CHO cells (CHO-CXCR7), transgenes maintained with Hygromycin B and G418
# Assay: CXCR7 β-arrestin recruitment assay in CHO-CXCR7 cells (ProLink/EA β-galactosidase complementation), induced by human SDF-1a
# Format: cell-based
# Conditions: assay buffer, SDF-1a at EC50 concentration
# Method in brief: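 CHO cells co-expressing ProLink-tagged CXCR7 and β-arrestin-EA were pre-plated overnight, then given compound and human SDF-1α at its same-day EC50. After 1.5 h at 37 °C, complemented β-galactosidase was read from 0.4 mM 3-carboxyumbelliferyl β-D-galactopyranoside (30 min, 37 °C; ex 360/em 465 nm). IC50 by 3-parameter fit.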
# T1 sequence (P25106 whole entry): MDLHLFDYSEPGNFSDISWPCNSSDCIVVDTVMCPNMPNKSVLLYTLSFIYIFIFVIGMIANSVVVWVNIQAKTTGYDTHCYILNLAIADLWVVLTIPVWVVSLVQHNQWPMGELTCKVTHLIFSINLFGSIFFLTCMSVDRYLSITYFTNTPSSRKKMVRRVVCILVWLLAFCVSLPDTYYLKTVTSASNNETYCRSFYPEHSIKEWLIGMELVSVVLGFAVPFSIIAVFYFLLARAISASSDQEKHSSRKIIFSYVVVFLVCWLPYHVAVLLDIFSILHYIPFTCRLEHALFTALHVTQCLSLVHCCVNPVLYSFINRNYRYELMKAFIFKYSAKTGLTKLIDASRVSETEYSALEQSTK
row,IC50 [nM],Compound
1,5 to 100,Cc1cncc(C(C)(C)NC(=O)CC2(NC(=O)c3cc(-c4ccc(F)cc4F)on3)CN([C@H]3CC[C@@](C)(O)CC3)C2)c1 [Example 1.139]
2,5 to 100,CC(C)(O)CN1CC(CC(=O)NC(C)(C)c2cc(F)cc(F)c2)(NC(=O)c2cc(-c3ccc(F)cc3F)on2)C1 [Example 1.137]
3,100 to 1000,COc1ccc(C(C)(C)NC(=O)CC2(NC(=O)c3cc(-c4ccc(F)cc4F)on3)CN([C@H]3CC[C@](C)(O)CC3)C2)c(F)c1 [Example 1.213]
4,100 to 1000,Cc1cc(C)nc(C(C)(C)NC(=O)CC2(NC(=O)c3nnc(-c4ccc(F)cc4F)o3)CN([C@H]3CC[C@@](C)(O)CC3)C2)n1 [Example 1.057]
5,5 to 100,CC(C)(NC(=O)CC1(NC(=O)c2cc(-c3ccc(F)cc3F)on2)CN([C@H]2CC[C@@](C)(O)CC2)C1)c1ccc(F)cc1F [Example 1.288]
6,5 to 100,COc1cccnc1C(C)(C)NC(=O)CC1(NC(=O)c2nnc(-c3ccc(F)cc3F)s2)CN([C@H]2CC[C@](C)(O)CC2)C1 [Example 1.009]
7,5 to 100,COc1cc(C)cc(C(C)(C)NC(=O)CC2(NC(=O)c3cc(-c4ccc(F)cc4F)on3)CN([C@H]3CC[C@](C)(O)CC3)C2)c1 [Example 1.119]
8,5 to 100,Cn1ccc2c(C(C)(C)NC(=O)CC3(NC(=O)c4cc(-c5ccc(F)cc5F)on4)CN([C@H]4CC[C@@](C)(O)CC4)C3)cccc21 [Example 1.125]
9,< 5,Cc1cccc(C(C)(C)NC(=O)CC2(NC(=O)c3cc(-c4ccc(F)cc4F)on3)CN(C3CCCCC3)C2)n1 [Example 1.293]
10,5 to 100,COc1cncc(C(C)(C)NC(=O)CC2(NC(=O)c3cc(-c4ccc(F)cc4F)on3)CN([C@H]3CC[C@@](C)(O)CC3)C2)c1 [Example 1.141]
11,100 to 1000,CC(C)(NC(=O)CC1(NC(=O)c2noc(-c3ccc(F)cc3F)n2)CN([C@H]2CC[C@](C)(O)CC2)C1)c1ccccc1 [Example 1.078]
12,100 to 1000,Cc1ccc(C(C)(C)NC(=O)CC2(NC(=O)c3cc(-c4ccc(F)cc4F)on3)CN([C@H]3CC[C@](C)(O)CC3)C2)cc1C(F)(F)F [Example 1.262]
13,100 to 1000,CC(C)(NC(=O)CC1(NC(=O)c2cc(-c3ccc(F)cc3F)on2)CN([C@H]2CC[C@@](C)(O)CC2)C1)c1ccccn1 [Example 1.034]
14,< 5,CC(C)(NC(=O)CC1(NC(=O)c2nnc(-c3ccc(F)cc3F)s2)CN(C2CCCCC2)C1)c1ccccn1 [Example 1.072]
15,< 5,CC(C)(NC(=O)CC1(NC(=O)c2cc(-c3ccc(F)cc3F)on2)CN([C@H]2CC[C@@](C)(O)CC2)C1)c1ncccn1 [Example 1.232]
16,< 5,Cc1cccc(C(C)(C)NC(=O)CC2(NC(=O)c3cc(-c4ccc(F)cc4F)on3)CN([C@H]3CC[C@](C)(O)CC3)C2)c1 [Example 1.237]
17,5 to 100,CC(C)CN1CC(CC(=O)NC(C)(C)c2ccccn2)(NC(=O)c2cc(-c3ccc(F)cc3F)on2)C1 [Example 1.129]
18,< 5,CC(C)(NC(=O)CC1(NC(=O)c2cc(-c3ccc(F)cc3F)on2)CN([C@H]2CC[C@](C)(O)CC2)C1)c1ccccn1 [Example 1.303]
19,1000 to 20000,CC(C)(F)CN1CC(CC(=O)NC(C)(C)c2ccccn2)(NC(=O)c2cc(-c3ccc(F)cc3F)on2)C1 [Example 1.104]
20,< 5,Cc1ccc(C)c(C(C)(C)NC(=O)CC2(NC(=O)c3nnc(-c4ccc(F)cc4F)s3)CN([C@H]3CC[C@](C)(O)CC3)C2)n1 [Example 1.011]

row,IC50 [nM],Compound
1,100 to 1000,Cc1cc(C)nc(C(C)(C)NC(=O)CC2(NC(=O)c3cc(-c4ccc(F)cc4F)on3)CN(C3CC(C)OC(C)C3)C2)n1 (stereo not shown) [Example 1.354]
2,5 to 100,CC1(C)CC(N2CC(CC(=O)NC(C)(C)c3ccccn3)(NC(=O)c3cc(-c4ccc(F)cc4F)on3)C2)CCO1 (stereo not shown) [Example 1.013]
3,5 to 100,Cc1cncc(C(C)(C)NC(=O)CC2(NC(=O)c3cc(-c4ccc(F)cc4F)on3)CN([C@H]3CC[C@](C)(O)CC3)C2)c1 [Example 1.140]
4,5 to 100,Cc1cc(Cl)cc(C(C)(C)NC(=O)CC2(NC(=O)c3nnc(-c4ccc(F)cc4F)s3)CN([C@H]3CC[C@](C)(O)CC3)C2)c1 [Example 1.348]
5,5 to 100,Cn1cc(C(C)(C)NC(=O)CC2(NC(=O)c3cc(-c4ccc(F)cc4F)on3)CN(C3CCCCC3)C2)cn1 [Example 1.273]
6,1000 to 20000,C[C@]1(O)CC[C@H](N2CC(CC(=O)NCc3ccccc3)(NC(=O)c3cc(-c4ccc(F)cc4F)on3)C2)CC1 [Example 1.128]
7,5 to 100,CC(C)(NC(=O)CC1(NC(=O)c2nnc(-c3ccc(F)cc3F)s2)CN([C@H]2CC[C@](C)(O)CC2)C1)c1ncccn1 [Example 1.033]
8,100 to 1000,O=C(CC1(NC(=O)c2cc(-c3ccc(F)cc3F)on2)CN(C2CCOCC2)C1)NC1(c2ncccn2)CC1 [Example 1.328]
9,5 to 100,CC1(C)CC(N2CC(CC(=O)NC(C)(C)c3cccc(Cl)c3)(NC(=O)c3cc(-c4ccc(F)cc4F)on3)C2)CCO1 (stereo not shown) [Example 1.357]
10,5 to 100,CC(C)(NC(=O)CC1(NC(=O)c2ncc(-c3ccc(F)cc3F)s2)CN([C@H]2CC[C@](C)(O)CC2)C1)c1cccc(Cl)c1 [Example 1.046]
11,5 to 100,CC(C)CN1CC(CC(=O)NC(C)(C)c2cc(Cl)cc(Cl)c2)(NC(=O)c2cc(-c3ccc(F)cc3F)on2)C1 [Example 1.093]
12,< 5,CC(C)(NC(=O)CC1(NC(=O)c2cc(-c3ccc(F)cc3F)no2)CN([C@H]2CC[C@](C)(O)CC2)C1)c1cccc(Cl)c1 [Example 1.048]
13,1000 to 20000,CC(C)(NC(=O)CC1(NC(=O)c2cnn(-c3ccc(F)cc3F)c2)CN([C@H]2CC[C@](C)(O)CC2)C1)c1cccc(Cl)c1 [Example 1.049]
14,100 to 1000,CN1CCC(N2CC(CC(=O)NC(C)(C)c3ccccn3)(NC(=O)c3cc(-c4ccc(F)cc4F)on3)C2)CC1 [Example 1.280]
15,5 to 100,Cc1cc(C)nc(C(C)(C)NC(=O)CC2(NC(=O)c3nnc(-c4ccc(F)cc4F)s3)CN(CC3CC3)C2)n1 [Example 1.030]
16,5 to 100,CCc1cc(C(C)(C)NC(=O)CC2(NC(=O)c3cc(-c4ccc(F)cc4F)on3)CN([C@H]3CC[C@](C)(O)CC3)C2)ccn1 [Example 1.149]
17,5 to 100,COc1cc(C(C)(C)NC(=O)CC2(NC(=O)c3cc(-c4ccc(F)cc4F)on3)CN([C@H]3CC[C@](C)(O)CC3)C2)ccc1F [Example 1.177]
18,5 to 100,CC(C)(NC(=O)CC1(NC(=O)c2cc(-c3ccc(F)cc3)on2)CN([C@H]2CC[C@@](C)(O)CC2)C1)c1ccccc1 [Example 1.089]
19,5 to 100,O=C(CC1(NC(=O)c2cc(-c3ccc(F)cc3F)on2)CN(C2CCCCC2)C1)N[C@H](CO)c1ccccc1 [Example 1.316]
20,< 5,CC(C)(NC(=O)CC1(NC(=O)c2cc(-c3ccc(F)cc3F)on2)CN(C2CCCCC2)C1)c1ccccc1 [Example 1.318]

row,IC50 [nM],Compound
1,< 5,COc1ccnc(C(C)(C)NC(=O)CC2(NC(=O)c3cc(-c4ccc(F)cc4F)on3)CN([C@H]3CC[C@](C)(O)CC3)C2)c1 [Example 1.201]
2,5 to 100,C[C@]1(O)CC[C@@H](N2CC(CC(=O)NC3(c4ccccn4)CC3)(NC(=O)c3cc(-c4ccc(F)cc4F)on3)C2)CC1 [Example 1.190]
3,5 to 100,CC(C)(NC(=O)CC1(NC(=O)c2cn(-c3ccc(F)cc3F)nn2)CN(C2CCCCC2)C1)c1ccccn1 [Example 1.075]
4,5 to 100,CC(C)(NC(=O)CC1(NC(=O)c2cc(-c3ccc(F)cc3F)on2)CN(CC2CC2)C1)c1cccc(Cl)c1 [Example 1.113]
5,100 to 1000,COc1cccc(C(C)(C)NC(=O)CC2(NC(=O)c3cc(-c4ccc(F)cc4F)on3)CN(CC3(C)COC3)C2)c1 [Example 1.174]
6,5 to 100,CC(C)(NC(=O)CC1(NC(=O)c2cc(-c3ccc(F)cc3F)on2)CN(C2CCC(F)(F)CC2)C1)c1ccccn1 [Example 1.319]
7,100 to 1000,COC[C@@H](NC(=O)CC1(NC(=O)c2cc(-c3ccc(F)cc3F)on2)CN(C2CCCCC2)C1)c1ccccc1 [Example 1.295]
8,5 to 100,CC(C)(NC(=O)CC1(NC(=O)c2cc(-c3ccc(F)cc3F)on2)CN(CC2CC2)C1)c1ccccc1 [Example 1.322]
9,< 5,CCc1cccc(C(C)(C)NC(=O)CC2(NC(=O)c3cc(-c4ccc(F)cc4F)on3)CN([C@H]3CC[C@@](C)(O)CC3)C2)c1 [Example 1.208]
10,5 to 100,CC(C)(NC(=O)CC1(NC(=O)c2cnc(-c3ccc(F)cc3F)s2)CN([C@H]2CC[C@@](C)(O)CC2)C1)c1cccc(Cl)c1 [Example 1.068]
11,< 5,COc1ccc(F)cc1C(C)(C)NC(=O)CC1(NC(=O)c2cc(-c3ccc(F)cc3F)on2)CN([C@H]2CC[C@](C)(O)CC2)C1 [Example 1.266]
12,5 to 100,CC(C)(NC(=O)CC1(NC(=O)c2cc(-c3ccc(F)cc3F)on2)CN([C@H]2CC[C@](C)(O)CC2)C1)c1ccnc(C(F)(F)F)c1 [Example 1.166]
13,5 to 100,Cc1cc(C2CC2)cc(C(C)(C)NC(=O)CC2(NC(=O)c3nnc(-c4ccc(F)cc4F)s3)CN([C@H]3CC[C@](C)(O)CC3)C2)n1 [Example 1.350]
14,1000 to 20000,Cc1cc(C)nc(C(C)(C)NC(=O)CC2(NC(=O)c3cc(-c4ccc(F)cc4F)n[nH]3)CN([C@H]3CC[C@@](C)(O)CC3)C2)n1 [Example 1.052]
15,1000 to 20000,O=C(CC1(NC(=O)c2cc(-c3ccc(F)cc3F)on2)CN(C2CCCCC2)C1)N[C@@H](CO)c1ccccc1 [Example 1.310]
16,< 5,CC(C)(NC(=O)CC1(NC(=O)c2nnc(-c3ccc(F)cc3F)s2)CN([C@H]2CC[C@](C)(O)CC2)C1)c1cccc(F)c1 [Example 1.042]
17,< 5,CC(C)(NC(=O)CC1(NC(=O)c2cc(-c3ccc(F)cc3F)on2)CN([C@H]2CC[C@@](C)(O)CC2)C1)c1ccccc1C(F)(F)F [Example 1.292]
18,5 to 100,CC(C)(NC(=O)CC1(NC(=O)c2cc(-c3ccc(F)cc3F)on2)CN([C@H]2CC[C@](C)(O)CC2)C1)c1cccc(C2CC2)c1 [Example 1.144]
